Like-named read-outs stand apart in the source and are kept apart here.
Experiments:
[1] = test system: PHH; settings: cited from earlier work
[2] = test system: HepaRG spheroids; assay: Combined HCI (HCS) and cellular ATP 3D assay in HepaRG spheroids; settings: for AC50 / minimal effective concentration: Homo sapiens
[3] = test system: HepG2 cells; settings: In vitro Assay; ref Tolosa 2012; cited from earlier work
[4] = plasma free fraction; cited from earlier work
[5] = cited from earlier work
[6] = read-out: Human plasma Cmax; total plasma Cmax.tot, median of 9 literature references; cited from earlier work
[7] = ref Chen 2011; cited from earlier work
[8] = test system: hLiMTs; settings: cited from earlier work
[9] = test system: THLE-Null and THLE-3A4 cells; settings: In vitro Assay; ref Gustafsson 2014; cited from earlier work
[10] = test system: THLE or HepG2 cells, isolated mitochondria, BSEP; settings: cited from earlier work
[11] = test system: hLiMTs; assay: Combined HCI (HCS) and cellular ATP 3D assay in hLiMTs
[12] = test system: HepG2 C3A spheroid, BSEP, Glu/Gal in HepG2 cells, bioactivation; settings: cited from earlier work
[13] = cited from earlier work; remark: listed apart in the source
[14] = test system: rBsep; settings: In vitro Assay; ref Dawson 2012; cited from earlier work
[15] = test system: HepG2 cells, primary human hepatocytes; settings: In vitro Assay; ref Garside 2014; cited from earlier work
[16] = test system: human hepatocytes; settings: cited from earlier work
[17] = test system: HepG2 cells; settings: cited from earlier work
[18] = test system: Upcyte human hepatocytes; settings: In vitro Assay; ref Tolosa 2019; cited from earlier work
[19] = Plasma free fraction (fu) and unbound Cmax (Cmax,u); type: in vitro ADME, human; settings: unbound plasma Cmax
Protocol: The prediction of DILI severity was evaluated further using the 3D combined HCI assays using plasma-free fraction. The majority of fu values were obtained from literature, when unavailable in-house prediction was utilised. Unbound plasma Cmax concentrations (Cmax,u) were derived by multiplying total plasma Cmax with the corresponding free fraction (fu) for each compound.

[20] = test system: HepG2 cells; settings: cited from earlier work; remark: listed apart in the source
[21] = test system: PHH spheroids; settings: cited from earlier work
[22] = test system: primary human hepatocytes, NIH3T3 fibroblasts, BSEP, CYP3A4; settings: cited from earlier work
[23] = In vitro Assay, ref Proctor 2017
[24] = Microtissue model structural based (HCI), combined HCS and ATP, MEC < 25 × Cmax.tot cut-off
[25] = Modeled in vitro assays (cytotoxicity, mitochondrial dysfunction, BSEP), ref Aleo et al. 2019
[26] = In vitro Assay, ref Persson 2013
[27] = In vitro Assay, ref Schadt 2015

Compound: CN(Cc1cnc2nc(N)nc(N)c2n1)c1ccc(C(=O)N[C@@H](CCC(=O)O)C(=O)O)cc1 [methotrexate, reference compound]
- PHH/100uM, Proctor (2017) ([1]; 2D PHH, ATP, IC50 threshold 100 µM, ref Proctor et al. 2017): -VE
- PHH ATP <100uM [1, 23]: -VE
- HepaRG <25x Avg Cmax ATP ([2]; HepaRG, ATP endpoint, cut-off <25x Avg Cmax): +ve
- HepaRG <100x Avg Cmaxu ATP ([2]; HepaRG, ATP endpoint, cut-off <100x Avg Cmaxu): +ve (<100x Avg Cmaxu)
- HepaRG <25x Avg Cmax HCS ([2]; HepaRG, HCS endpoints, cut-off <25x Avg Cmax): +ve
- HepaRG <100x Avg Cmaxu HCS ([2]; HepaRG, HCS endpoints, cut-off <100x Avg Cmaxu): +ve (<100x Avg Cmaxu)
- HepaRG <25x Avg Cmax All ([2]; HepaRG, all endpoints (ATP and HCS), cut-off <25x Avg Cmax): +ve
- HepaRG Cmax max All ([2]; HepaRG, all endpoints, Cmax max used): +ve
- HepaRG Cmax min All ([2]; HepaRG, all endpoints, Cmax min used): +ve
- HepaRG <10 uM All ([2]; HepaRG, all endpoints, cut-off <10 uM): +ve (<10 uM)
- HepaRG <100x Avg Cmaxu All ([2]; HepaRG, all endpoints, cut-off <100x Avg Cmaxu): +ve (<100x Avg Cmaxu)
- AC50 ([2]; HepaRG, read-out: ATP endpoint AC50): 200 nM
- minimal effective concentration ([2]; HepaRG, read-out: ATP endpoint MEC): 0.2 µM
- AC50 ([2]; HepaRG, read-out: HCS endpoint AC50): 200 nM
- minimal effective concentration ([2]; HepaRG, read-out: HCS endpoint MEC): 0.2 µM
- DILI prediction HepaRG spheroids (HCS-MEC) [2, 24]: +VE (MEC < 25 × Cmax.tot cut-off)
- Structural based (HCI) [3]: +VE
- fu [4]: 0.500
- DILI severity category (Chen et al. [2016]) ([5]; LTKB DILIrank category, ref Chen et al. 2016): Most
- DILI severity category (Chen 2016) ([5]; human DILI classification, LTKB DILIrank, ref Chen et al. 2016): Most
- DILI severity category ([5]; human DILI severity, ref Chen et al.): Most
- DILI +VE (5-8), DILI -VE (-4) ([5]; ref Chen 2016): +VE
- DILI severity category ([5]; ref Chen 2016): vMost-DILI-Concern
- Cmax [6]: 4.63 µM
- DILI Score (FDA) (1-8) [7]: 3
- hLiMTs ATP <100uM [8, 23]: -VE
- hLiMTs/100uM, Proctor (2017) ([8]; hLiMTs, ATP, IC50 threshold 100 µM, ref Proctor et al. 2017): -VE
- THLE-Null [9]: -VE
- Partition Hybrid HRM Score ([10]; In vitro Assay, ref Aleo 2019): +VE
- Ro2 Hybrid HRM Score ([10]; In vitro Assay, ref Aleo 2019): +VE
- Partition Hybrid HRM Score ≥4, Aleo (2019) [10, 25]: +VE (Partition Hybrid HRM Score ≥4)
- Partition Hybrid HRM Score ≥8, Aleo (2019) [10, 25]: -VE
- Rule of Two hybrid HRM Score ≥3, Aleo (2019) [10, 25]: +VE (Rule of Two hybrid HRM Score ≥3)
- Rule of Two hybrid HRM Score ≥8, Aleo (2019) [10, 25]: -VE
- DILI prediction hLiMTs, HCI alone ([11]; HCS endpoints only, 25 × Cmax.tot cut-off): detection
- AC50 ([11]; Homo sapiens, read-out: HCS endpoint AC50): 16900 nM
- minimal effective concentration ([11]; Homo sapiens, read-out: HCS endpoint MEC): 0.703 µM
- DILI prediction hLiMTs (HCS-MEC) [11, 24]: +VE (MEC < 25 × Cmax.tot cut-off)
- DILI prediction hLiMTs, ATP alone ([11]; cellular ATP only, 25 × Cmax.tot cut-off): unpredicted
- hLiMTs <25x Avg Cmax ATP ([11]; hLiMTs, ATP endpoint, cut-off <25x Avg Cmax): -ve
- hLiMTs <100x Avg Cmaxu ATP ([11]; hLiMTs, ATP endpoint, cut-off <100x Avg Cmaxu): -ve
- hLiMTs <25x Avg Cmax HCS ([11]; hLiMTs, HCS endpoints, cut-off <25x Avg Cmax): +ve
- hLiMTs <100x Avg Cmaxu HCS ([11]; hLiMTs, HCS endpoints, cut-off <100x Avg Cmaxu): +ve (<100x Avg Cmaxu)
- hLiMTs <25x Avg Cmax All ([11]; hLiMTs, all endpoints (ATP and HCS), cut-off <25x Avg Cmax): +ve
- hLiMTs Cmax max All ([11]; hLiMTs, all endpoints, Cmax max used): +ve
- hLiMTs Cmax min All ([11]; hLiMTs, all endpoints, Cmax min used): -ve
- hLiMTs <10 uM All ([11]; hLiMTs, all endpoints, cut-off <10 uM): +ve (<10 uM)
- hLiMTs <100x Avg Cmaxu All ([11]; hLiMTs, all endpoints, cut-off <100x Avg Cmaxu): +ve (<100x Avg Cmaxu)
- Bayesian Machine Learning DILI prediction, Williams (2019) ([12]; Bayesian modeling, ref Williams et al. 2019): +VE
- Bayesian Machine Learning ([12]; In vitro Assay, ref Williams 2019): +VE
- Assigned DILI category ([13]; Chen et al. 2016 or literature alignment, ref Chen et al. 2016): 3
- In vivo DILI ([13]; […]): +VE
- In vivo DILI ([13]; ref Aleo 2019): +VE
- In vivo DILI ([13]; ref Dawson 2012): +VE
- In vivo DILI ([13]; ref Garside 2014): +VE
- In vivo DILI ([13]; ref Gustafsson 2014): +VE
- In vivo DILI ([13]; ref O'Brien 2006): +VE
- In vivo DILI ([13]; ref Persson 2013): +VE
- In vivo DILI ([13]; ref Proctor 2017): +VE
- In vivo DILI ([13]; ref Schadt 2015): +VE
- In vivo DILI ([13]; ref Tolosa 2012): +VE
- In vivo DILI ([13]; ref Tolosa 2019): +VE
- In vivo DILI ([13]; ref Vorrink 2018): +VE
- In vivo DILI ([13]; ref Williams 2019): +VE
- In vivo DILI ([13]; ref Xu 2008): +VE
- Inhibition of rBsep cutoff<1& cmax u>.2 [14]: -VE
- Inhibition of rBsep cutoff<3 [14]: -VE
- Cluster 1-6 +VE Assay [15]: -VE
- Structural based (HCI) ([16]; In vitro Assay, ref Xu 2008): -VE
- DILI in vitro assay prediction, Xu (2008) ([16]; Structural based (HCI), human hepatocytes, ref Xu et al. 2008): -VE
- Structural based (HCI) ([17]; In vitro Assay, ref O'Brien 2006): +VE
- DILI in vitro assay prediction, O'Brien (2006) ([17]; Structural based (HCI), HepG2, ref O'Brien et al. 2006): +VE (lowest HCI endpoint IC50 (or in the absence of dose–response < 100 µM) < 30 × total human plasma exposure levels (Cmax.tot))
- Upcytes multi donor assay 14day data [18]: +VE
- Human plasma Cmax,u [19]: 2.315 µM
- Cluser analysis [20, 26]: -VE
- Structural based (HCI) [20, 26]: -VE
- DILI in vitro assay prediction, Persson (2013) ([20]; Structural based (HCI), HepG2, ref Persson et al. 2013): -VE
- hLiMTs ATP <20 x Cmax ([21]; In vitro Assay, ref Vorrink 2018): +VE (IC20 < 20 × Cmax.tot cut-off)
- DILI in vitro assay prediction, Vorrink (2018) ([21]; PHH spheroids, ATP, 14 days, IC20 < 20 × Cmax.tot, ref Vorrink et al. 2018): +VE (IC20 < 20 × Cmax.tot cut-off)
- DILI in vitro assay prediction, Schadt (2015) ([22]; BSEP & Metabolism based, ref Schadt et al. 2015): -VE
- Cellular toxicity (3T3 cells) [22, 27]: -VE
- GSH adduct HML [22, 27]: -VE
- Hepatocyte cellular toxicity [22, 27]: -VE
- MitoTox 3T3 [22, 27]: -VE
- TDI CYP3A4 [22, 27]: -VE
- hBSEP inhibition [22, 27]: -VE

From article PMC7395068, “The evolution of strategies to minimise the risk of human drug-induced liver injury (DILI) in drug discovery and development” (Archives of Toxicology, 2020)
